In patent US20110281852A1 (priority 2010, published 2011):
Read-outs that look alike come from different tables or passages of the source.

Legend:
3T3-L1 cells [1] = test: Oil-Red-O staining and quantification, berberine with amentoflavone in 3T3-L1 (Example 6); format: cell-based, mouse; conditions: Mus musculus
Experimental: (§1) Oil-Red-O staining and quantification: Oil-Red-O Staining and its quantification were performed as previously reported. Briefly, medium was removed and cells were washed with PBS twice, fixed with 3.7% formalin at room temperature for 30 min, then rinsed with pure water, added 60% isopropanol and incubated for 5 minutes, then moved out isopropanol and stained cells with diluted Oil-Red-O solution (Oil-Red-O store solution (3 mg/ml in pure isopropanol): water=3:2) at room temperature for 10 min. Then the diluted Oil-Red-O solution was removed and cells were washed 3 times with pure water. After staining, the cells were washed twice with 70% ethanol to remove excess stain. Stained oil droplets in the cells were dissolved in isopropanol containing 4% Nonidet-P40 (Fisher Scientific, Pittsburgh, Pa., USA) shaking in 37° C. at speed 100 rpm for 1 hour, and OD values were measured at an absorbance of 490 nm and then normalized with control group.

[2] = in vivo; cited from earlier work
3T3-L1 cells [3] = test: MTT assay, 3T3-L1 viability during differentiation with clozapine, risperidone, berberine (Example 2); format: cell-based, mouse; conditions: day 8 of differentiation
Experimental: (§2) Cell culture and drug treatment: 3T3-L1 cells (American Type Culture Collection, Manassas, Va., USA) were cultured at 37° C. in a humidified 5% CO2 atmosphere and grown in a DMEM (Sigma-Aldrich, St. Louis, Mo. USA) supplemented with 10% Fetal Bovine Serum (FBS, Atlanta Biologicals Corp., Lawrenceville, Ga., USA), 100 units/ml penicillin and 100 μg/ml streptomycin. Differentiation was induced by addition of 167 nM insulin, 520 μM isobutylmethylxanthine (IBMX), and 1 μM dexamethasone for 2 days and then only with 167 nM insulin for 6 days. Detailed protocol was described as our previous report (Hu et al., Phytomedicine (2009) 16(9):864-873).
(§3) Medium was removed after differentiation and treatment for 8 days, MTT (Methylthiazolyldiphenyl—tetrazolium bromide 0.5 mg/ml, 50 μl/well) was added.

[4] = over 10 weeks of treatment; cited from earlier work
3T3-L1 cells [5] = test: Oil-Red-O staining and quantification, clozapine/risperidone induced adipogenesis in 3T3-L1 (Example 2); format: cell-based, mouse; conditions: 8 days
Experimental: Detailed protocol was described as our previous report (Hu et al., Phytomedicine (2009) 16(9):864-873).
as §1, with “reported (Liu et al., Sinica (2004) 25:1052-1057).” for “reported.”, “water. Images were obtained using an Olympus IX70 inverted microscope equipped for phase-contrast microscopy (Olympus, Tokyo, Japan).” for “water.”

SREBP-1 = test: Real-time RT-PCR, SREBP-1 mRNA in 3T3-L1; format: cell-based, mouse; conditions: 8 days
Excerpt: (§4) Realtime RT-PCR: Real-time reverse transcriptase polymerase chain reaction (RT-PCR) analysis was used to measure mRNA expression of genes SREBP-1, PPARγ, C/EBPα, low density lipoprotein receptor (LDLR), Adiponectin, and fatty acid synthase (FAS) under the control of β-actin. Briefly, total RNA was isolated from 3T3-L1 cells following treatment for 8 days with Trizol reagent (Invitrogen, Carlsbad, Calif., USA) according to the manufacturer's instruction. RNA was quantified using absorption of light at 260 nm, and sample purity was checked by OD 260 nm/280 nm. 0.8 μg of total RNA from each sample was used for reverse transcription reaction using the TaqMan Reverse Transcription Reagents (Applied Biosystems, Foster City, Calif., USA) according to the manufacturers' instructions. PCR was done using the SYBR green Master Mix (Applied Biosystems, Foster City, Calif., USA) according to the manufacturers' instructions. The temperature cycling conditions of amplification were as follows: an initial step of denaturation at 95° C. for 10 min, 40 cycles of denaturation at 95° C. for 30 s, annealing at 55° C. for 30 s, and elongation at 72° C. for 30 s. Realtime RT-PCR was performed using Mx3000P Realtime Thermocyclers (Statagene, La Jolla, Calif., USA). The relative mRNA levels of these genes were calculated by 2-delta delta CT method and normalized with control groups.

Adiponectin = test: Real-time RT-PCR, Adiponectin mRNA in 3T3-L1; format: cell-based, mouse; conditions: 8 days
Excerpt: as §4

C/EBPα = test: Real-time RT-PCR, C/EBPα mRNA in 3T3-L1; format: cell-based, mouse; conditions: 8 days
Excerpt: as §4

[6] = system: fatty acid synthase (FAS); test: Real-time RT-PCR, FAS mRNA in 3T3-L1; format: cell-based, mouse; conditions: 50 μM risperidone, 8 days
Excerpt: as §4

[7] = system: low density lipoprotein receptor (LDLR); test: Real-time RT-PCR, LDLR mRNA in 3T3-L1; format: cell-based, mouse; conditions: 8 days
Excerpt: as §4

[8] = MTT assay, 3T3-L1 viability during differentiation with clozapine, risperidone, berberine (Example 2); format: cell-based, mouse; conditions: mouse, 3T3-L1 cells during differentiation induction; read-out: reduction of cell viability
Experimental: as §2, §3

PPARγ = test: Real-time RT-PCR, PPARγ mRNA in 3T3-L1; format: cell-based, mouse; conditions: 15 μM clozapine, 8 days
Excerpt: as §4

O=c1cc(-c2ccc(O)c(-c3c(O)cc(O)c4c(=O)cc(-c5ccc(O)cc5)oc34)c2)oc2cc(O)cc(O)c12 [amentoflavone, reference compound]
inhibition at 25 µM (3T3-L1 cells [1]; 3T3-L1, read-out: enhancement of the inhibitory effects of berberine, 25 μM amentoflavone added to 4 μM berberine, with 15 μM clozapine): 10.1% | inhibition at 25 µM (3T3-L1 cells [1]; 3T3-L1, read-out: enhancement of the inhibitory effects of berberine, 25 μM amentoflavone added to 8 μM berberine, with 15 μM clozapine): 7.8%

CC(C)CC(N(C)C)C1(c2ccc(Cl)cc2)CCC1 (stereo not drawn) [sibutramine]
effect in antipsychotic-induced weight gain [2]: no statistically significant effect

Cc1nc2n(c(=O)c1CCN1CCC(c3noc4cc(F)ccc34)CC1)CCCC2 [risperidone, reference compound]
enhancement of cell viability (3T3-L1 cells [3]; printed 'for 15 μM clozapine treatment'): 14% | enhancement of cell viability (3T3-L1 cells [3]; printed 'for 30 μM clozapine treatment'): 16.8% | weight gain [4]: ~2 kg | induced adipogenesis vs vehicle treated group (3T3-L1 cells [5]; 25 μM risperidone): 14.1% | induced adipogenesis vs vehicle treated group (3T3-L1 cells [5]; 50 μM risperidone): 26.5% | increase of SREBP-1 mRNA expression vs control group (SREBP-1; 50 μM risperidone): 133.5% | increase of adiponectin mRNA expression vs control group (Adiponectin; 50 μM risperidone): 63.8% | increase of C/EBPα mRNA expression vs control group (C/EBPα; 50 μM risperidone): 48.8% | increase of FAS mRNA expression vs control group [6]: 34.4% | increase of LDLR mRNA expression vs control group ([7]; 50 μM risperidone): 61.5%

CCCCCCCCCCC[C@@H](C[C@@H]1OC(=O)[C@H]1CCCCCC)OC(=O)[C@H](CC(C)C)NC=O [orlistat]
effect in antipsychotic-induced weight gain [2]: no statistically significant effect

CN1CCN(C2=Nc3cc(Cl)ccc3Nc3ccccc32)CC1 [clozapine, reference compound]
cytotoxicity at 8 days, 15 μM [8]: 6.2% | cytotoxicity at 8 days, 30 μM [8]: 12.5% | induced adipogenesis vs vehicle treated group (3T3-L1 cells [5]; 15 μM clozapine): 37.4% | induced adipogenesis vs vehicle treated group (3T3-L1 cells [5]; 30 μM clozapine): 25.2% | increase of SREBP-1 mRNA expression vs control group (SREBP-1; 15 μM clozapine): 27.6% | increase of adiponectin mRNA expression vs control group (Adiponectin; 15 μM clozapine): 45.5% | increase of C/EBPα mRNA expression vs control group (C/EBPα; 15 μM clozapine): 45.7% | increase of PPARγ mRNA expression vs control group (PPARγ): 68.3% | increase of LDLR mRNA expression vs control group ([7]; 15 μM clozapine): 63.1%

CN(C)C(=N)N=C(N)N [metformin]
effect in antipsychotic-induced weight gain [2]: no statistically significant effect
